This is an account of results in US20060204562A1, “Microprojection arrays with improved biocompatibility” (priority 2005, published 2006).

Assay type in all cases: in vivo, hairless guinea pig
Data set [1] is described as follows: urinary excretion of intact RWJ-445167 following IV injection (LC-MS). Particulars: following IV injection of 0.5 to 3 mg RWJ-445167.
A short description of data set [2]: transdermal drug absorption from gel formulation with microprojection systems, extrapolated from urinary excretion. How it is done:
(§1) Pretreatment and integrated systems described In U.S. application Ser. Nos. 10/971,430 and 10/970,901 were employed for the following analysis. The microprojection designs with retention features (i.e., 30a-30c) were used with the integrated system while the microprojection designs without retention features (i.e., 30d-30g) were used with the pretreatment system.
(§2) Following application of the systems, the gel formulation was left in contact with the skin for up to 24 h.

The nature of data set [3]: skin site irritation and bleeding after 24 h system wearing (erythema+edema score, photographs). How it is done: as §1, §2
Referring now to FIG. 4, there is shown a series of photographs of the skin site following 24 h system wearing time.
An additional experiment using the pretreatment system was performed to compare microprojections lengths of 120 and 145 μm.
Referring now to FIG. 6, there is shown a graph illustrating the combined erythema+edema score obtained with the various microprojection designs. […] The results thus confirm that lower irritation is observed with shorter microprojections. Further, the skin site was not distinguishable from control sites (24 h wearing with the same formulation, no microprojection treatment).

SMILES strings stand for the structures.

Turning to `Cc1cccc(S(=O)(=O)Nc2ccc(C)n(CC(=O)NCCON=C(N)N)c2=O)c1` [RWJ-445167], the “dose found excreted intact in urine” value in data set [1] is reported as 7.5 % of the dose. Besides, the enhancement factor entry in data set [2] (120 μm microprojection array pretreatment vs no microprojection treatment) is reported as “at least 10000 fold”. The duration of delivery result in data set [2] (120 μm microprojections (FIG. 8)) is reported as “sustained delivery for 24 h”. Moreover, the drug absorbed result in data set [2] (following pretreatment with a 120 μm microprojection array, 24 h wearing, 20 wt % gel formulation) was “about 2.5 mg”. Besides, the drug absorption in data set [2] (formulation applied to the skin for 24 h in the absence of treatment with a microprojection array, detection limit) was below 0.2 μg absorbed per 24 h. Further, the “combined erythema+edema score (irritation)” value in data set [3] (120 μm microprojections (FIG. 6), 24 h wearing) is “absence of irritation”. Also, in data set [3] (pretreatment system, 120 μm microprojection length (FIG. 5)), the “bleeding / erythema at skin site” value is “no bleeding or erythema”. For the same compound, the “bleeding at skin site” value in data set [3] (pretreatment system, 145 μm microprojection length (FIG. 5)) was “some pinpoint bleeding”.
